Key:
[1] = test system: Sandhoff disease patient fibroblasts; assay: Glycosphingolipid (GSL) levels via HPLC; assay type: cell-based, human; conditions: 1 mM for 6 days
[2] = test system: Mucolipidosis Type IIIA (MLIIIA) patient fibroblasts; assay: Lysosomal volume via LysoTracker; assay type: cell-based, human; conditions: 1 mM, 6 days, vs untreated
[3] = test system: Hexb^−/− mouse (Sandhoff disease model); assay: Step cycle; assay type: in vivo; conditions: Sandhoff mice, 0.1 g/kg from 3 weeks, 12 weeks of age
Procedure: This study made use of a mouse model of Sandhoff disease, the Hexb^−/− mouse, as described in Jeyakumar et al. (Jeyakumar, M. et al. (1999) Proc. Natl. Acad. Sci. USA 96: 6388-6393). Step cycle is the length of time taken during locomotion by a limb from the time it leaves the ground until it leaves the ground on the next occasion. Step cycle time was assessed at 12 weeks of age in untreated and acetyl-leucine treated Sandhoff model mice. Acetyl-leucine treatment constituted 0.1 g/kg body weight acetyl-leucine from 3 weeks of age.

[4] = test system: patients with progressive supranuclear palsy; assay: Case studies, clinical examination; assay type: in vivo, human; conditions: 3 then 5 g per day; for gait and hypokinetic rigid syndrome: 17 days
Procedure: After 27 days of acetyl-leucine treatment, medication was stopped and the patient was re-examined 60 days later. […] Gait analysis was performed before treatment commenced. After 17 days of treatment, medication was stopped and the patient was re-examined 4 days later. […] Gait analysis was performed before treatment commenced. After three weeks of treatment, medication was stopped and the patient was re-examined.

[5] = test system: patient with Spinocerebellar Ataxia (SCA) 1; assay: Case study, clinical examination; assay type: in vivo, human; conditions: Ex. 16, SCA 1
Text: Three months later the medication was stopped.

[6] = test system: patient with spinocerebellar ataxia 28 (SCA 28); assay: Case study, clinical evaluation; assay type: in vivo, human; conditions: Ex. 14, SCA 28; 5 g per day; after about one month
Procedure: A gait analysis was performed before treatment commenced. After about one month of treatment, medication was stopped and the patient was evaluated. […] The patient reported that they no longer walked like a robot and could climb the stairs without using the banisters.

[7] = test system: AB variant of Tay-Sachs disease patient fibroblasts; assay: Glycosphingolipid (GSL) levels via HPLC; assay type: cell-based, human; conditions: 1 mM for 6 days
[8] = test system: patients with ataxia telangiectasia; assay: Case studies, SARA, SCAFI, visual analog scale and reports; assay type: in vivo, human
Text: For example, to evaluate overall neurological status, mDRS, a four-domain scale (ambulation, manipulation, language and swallowing), may be applied. Cerebellar function may be evaluated using SARA, an eight-item clinical rating scale (gait, stance, sitting, speech, fine motor function and taxis; range 0-40, where 0 is the best neurological status and 40 the worst), and SCAFI, comprising the 8-m-Walking-Time (8MW; performed by having patients walking twice as quickly as possible from one line to another excluding turning), 9-Hole-Peg-Test (9HPT) and the number of “PATA” repetitions over 10 s. Subjective impairment and quality of life may be evaluated using the EQ-5D-5L questionnaire and VAS. To assess ocular motor function, 3-dimensional videooculography (EyeSeeCam) may be used to measure the peak velocity of saccades, gain of smooth pursuit, peak slow phase velocity of gaze-evoked nystagmus (gaze-holding function), peak slow phase velocity of optokinetic nystagmus, and gain of horizontal vestibulo-ocular reflex. To evaluate the cognitive state, WAIS-R or WISC-W, and MoCA, assessing different cognitive domains, including attention and concentration, executive functions, memory, language, visuoconstructional skills, conceptual thinking, calculations, and orientation with a maximum of 30 points and a cut-off score of 26, may be used. The skilled person will know how to perform these and other such tests.
After one month of treatment, the patient was re-evaluated. […] Examination indicated a Scale for Assessment and Rating of Ataxia (SARA) score of 15.5/40. Results from the patient's Spinocerebellar Ataxia Functional Index (SCAFI) analysis were: • Mean 8-meters Walking Test (8MW): 18.5 s • MW 9-Hole Pegboard Test Dominant (9HPTD) (right): 77.9 s • MW 9-Hole Pegboard Test Non-Dominant (9HPTND): 101.3 s • MW PATA Word Test: 13 • Visual analog scale (as evaluated by the patient): 85
After one month of treatment, the patient was re-evaluated. […] Examination indicated a Scale for Assessment and Rating of Ataxia (SARA) score of 23.5/40.
After slightly over 7 months of treatment, the patient was re-evaluated. […] Examination indicated a Scale for Assessment and Rating of Ataxia (SARA) score of 21.5/40.
After slightly over 1 month of treatment, the patient was re-evaluated. […] The patient also reported that drinking was easier and no longer needed a straw. […] Examination indicated a Scale for Assessment and Rating of Ataxia (SARA) score of 18.5/40.
After about 1 month of treatment, the patient was re-evaluated. […] On medication, they were able to walk with only holding the caregiver's hand.
The patient was evaluated after one month and six months of treatment, respectively. […] The patient, however, was suffering from anxiety, which would be expected to negatively influence the response.

[9] = test system: Npc1^−/− (BALB/cNctr-Npc1^m1N) mouse; assay: Coat condition and disease indications by observation; assay type: in vivo
Text: Separate groups of Npc1^-/- and Npc1^+/+ mice were left untreated, as controls.

[10] = test system: patient with Lewy Body dementia; assay: Case study, clinical evaluation; assay type: in vivo, human; conditions: Ex. 17, Lewy Body dementia; 3 g/day one week, 5 g/day thereafter; after four weeks
Procedure: The patient started taking acetyl-leucine (3 g/day for one week; 5 g/day thereafter) and was evaluated after four weeks. […] Medication was reduced to 3 g/day, and the patient was instructed to stop medication about two weeks later.

[11] = Ex. 15 Patient 2, after one month
[12] = Ex. 15 Patient 3, after slightly over 7 months
[13] = Ex. 15 Patient 4, after slightly over 1 month
[14] = Ex. 15 Patient 5, after almost 7 months

CC(=O)NC(CC(C)C)C(=O)O (racemic) [acetyl-DL-leucine]
GSL levels [1]: trend towards decreased GSL levels
LysoTracker fluorescence (lysosomal volume) [2]: trend in reducing LysoTracker fluorescence
average step cycle time ([3]; p<0.001 vs untreated): significantly faster average step cycle times
hind step cycle time ([3]; p<0.01 vs untreated): significantly faster hind step cycle times
front step cycle time ([3]; p<0.05 vs untreated): significantly faster front step cycle times
dizziness and gait ([4]; Ex. 11 Patient 1, PSP, 27 days): significant reduction of dizziness and slight improvement of gait
gait and hypokinetic rigid syndrome ([4]; Ex. 11 Patient 2, PSP): no significant improvement of gait or hypokinetic rigid syndrome
gait and hypokinetic rigid syndrome ([4]; Ex. 11 Patient 3, PSP): no significant improvement of gait or hypokinetic rigid syndrome
gait and falls ([4]; Ex. 11 Patient 4, PSP, after three weeks): gait with increased subjective security and with reduced frequency of falls
symptoms ([5]; 5 g/day, three weeks on medication): all symptoms significantly improved
side-effects ([5]; over two years on the same dosage): without any side-effects
signs and symptoms after stopping ([5]; two weeks after the medication was stopped): the intensity of the signs and symptoms were the same as before therapy
symptomatology [6]: reduced dizziness (almost vanished), and a more stable gait
GSL levels [7]: trend towards decreased GSL levels
caregivers' report ([8]; Ex. 15 Patient 1, after one month): improvement of speech and gait
MW PATA Word Test ([8]; Ex. 15 Patient 1, after one month, before 12.5): 13
Mean 8-meters Walking Test (8MW) [8, 11]: not able to perform without support
caregivers' report [8, 11]: improvement of fine motor function, hand tremor, and speech
MW PATA Word Test ([8]; Ex. 15 Patient 2, after one month, before 13.5): 14
MW 9-Hole Pegboard Test Non-Dominant (9HPTND) ([8]; Ex. 15 Patient 2, after one month, before 299.2 s): 300 s
MW 9-Hole Pegboard Test Dominant (9HPTD) (right) ([8]; Ex. 15 Patient 2, after one month, before 300 s): 300 s
Mean 8-meters Walking Test (8MW) [8, 12]: not able to perform
caregivers' and patient's report [8, 12]: general improvement of well-being
MW PATA Word Test ([8]; Ex. 15 Patient 3, after slightly over 7 months, before 14): 10
Mean 8-meters Walking Test (8MW) [8, 13]: not able to perform
patient's and parent's report [8, 13]: improvement in handwriting
mother's report ([8]; Ex. 15 Patient 5, ataxia telangiectasia, 5 g/day, after about 1 month): significant improvement of stability of the gait
Mean 8-meters Walking Test (8MW) ([8]; Ex. 15 Patient 5, after about 1 month): not able to walk without support
MW PATA Word Test ([8]; Ex. 15 Patient 5, after about 1 month, before 6): 7.5
MW PATA Word Test [8, 14]: 11
mother's report [8, 14]: significantly more stable gait
clinical re-evaluation ([8]; Ex. 15 Patient 5, after slightly over a year): improved social interaction, activity, and agility
symptoms ([8]; Ex. 15 Patient 6, ataxia telangiectasia, 1.5 then 3 g/day, after one month): increased fine motor skills with reduced hand tremor
symptoms ([8]; Ex. 15 Patient 6, after six months): stable general conditions, stable gait and stance, and improved handwriting
onset of discernible indication of disease ([9]; Npc1−/− mice treated from weaning, untreated show it from 5-6 weeks of age): did not display such symptoms until two or more weeks later
coat condition ([9]; Npc1−/− mice, 0.1 g/kg in chow from weaning, nine weeks of age): smooth and glossy coat
patient-reported symptoms [10]: increased fatigue and a deterioration of balance and speech
